Results as given in patent US20130079353A1, “FLUOROQUINOLONES FOR THE TREATMENT AND/OR PROPHYLAXIS OF INFLAMMATORY DISEASES” (priority 2009, published 2013).

Experiments:
[1] = test system: mitochondrial respiratory complex I (NADH-quinone oxidoreductase); assay: Activity of mitochondrial respiratory complex I in treated T-cells, real-time spectrophotometry; assay type: cell-based, human; conditions: PHA-pre-activated T-cells treated 7 days; 15 min, 20° C.; normalized to total protein content; three donors
Experimental: Activities of the respiratory chain single enzyme complexes I and II, as well as of citrate synthase, were measured as described previously with minor modifications. Ciprofloxacin-treated cells were depleted of dead cells via Biocoll (Biochrom) gradient centrifugation. The cell number in different batches of ciprofloxacin-treated cells was equalized. For measurement of the enzymatic activities, samples were prepared as described previously with minor modifications. 4×10^7 cells were washed with PBS, shock-frozen in liquid nitrogen and thawed on ice. […] For a single data point the activity measurement was performed three times in triplicates and the average value was calculated. Steady state activity was recorded in a 96-well plate spectrophotometer using a thermostated chamber and a final volume of 300 μl. Enzymatic activities of complex I and complex II were recorded as NADH oxidation at 340-400 nm and as succinate oxidation at 610-750 nm, respectively. Citrate synthase activity was detected after two additional freeze/thaw cycles as 5,5′-dithiobis-(2-nitrobenzoic acid) (DTNB) reduction at 412 nm.
PHA-pre-activated and treated T-cells (see Example 2.1) were shock-frozen in liquid nitrogen. Next, activity of mitochondrial respiratory complex I (NADH-quinone oxidoreductase) was measured by real-time spectrophotometry. […]

[2] = test system: complex II (succinate dehydrogenase); assay: Activity of complex II in treated T-cells; assay type: cell-based; conditions: prolonged, long-term treatment of pre-activated human T-cells
Experimental: (§1) Activities of the respiratory chain single enzyme complexes I and II, as well as of citrate synthase, were measured as described previously with minor modifications. Ciprofloxacin-treated cells were depleted of dead cells via Biocoll (Biochrom) gradient centrifugation. The cell number in different batches of ciprofloxacin-treated cells was equalized. For measurement of the enzymatic activities, samples were prepared as described previously with minor modifications. 4×10^7 cells were washed with PBS, shock-frozen in liquid nitrogen and thawed on ice. Next, cells were permeabilized by 15 min incubation with 1 ml of 0.015% digitonin (w/v) in respiratory chain (RC) buffer (250 mM sucrose, 50 mM KCl, 5 mM MgCl2, 20 mM Tris-HCl, pH 7.4), washed with RC buffer and centrifuged at 8 000 rpm for 5 min at 4° C. For a single data point the activity measurement was performed three times in triplicates and the average value was calculated. Steady state activity was recorded in a 96-well plate spectrophotometer using a thermostated chamber and a final volume of 300 μl. Enzymatic activities of complex I and complex II were recorded as NADH oxidation at 340-400 nm and as succinate oxidation at 610-750 nm, respectively. Citrate synthase activity was detected after two additional freeze/thaw cycles as 5,5′-dithiobis-(2-nitrobenzoic acid) (DTNB) reduction at 412 nm.

citrate synthase = assay: Activity of citrate synthase in treated T-cells; assay type: cell-based; conditions: prolonged, long-term treatment of pre-activated human T-cells
Experimental: as §1

[3] = test system: activation-induced ROS generation in pre-activated primary human T-cells; assay: Activation-induced ROS generation, H2DCF-DA staining and FACS; assay type: cell-based; conditions: PHA-pre-activated T-cells, 7 days of Cipro treatment, plate-bound anti-CD3 (30 μg/ml), 1 h after activation
Experimental: Cells were stained with H2DCF-DA (5 μM) for 30 min. Next, cells were then divided and stimulated with either plate-bound anti-CD3 antibody (30 μg/ml) or PMA (10 ng/ml). Treatment was terminated by ice-cold PBS and ROS generation was determined by FACS analysis. If not stated otherwise, ROS generation was quantified as the increase in mean fluorescence intensity (MFI), calculated according to the following formula: increase in
MFI(%)=[(MFIstimulated−MFIunstimulated)/MFIunstimulated]×100 9.
After PHA-pre-activated and 7 days of Cipro treatment, T-cells were stained with redox sensitive fluorescent probe H2DCF-DA (20 min, 37° C.) and subsequently activated via plate-bound agonistic anti-CD3 antibody (30 μg/ml). The level of activation-induced ROS was assessed by FACS measurement 1 h after activation and calculated as percentage increase in MFI (untreated control set to 100%).

IL-2 [4] = assay: IL-2 gene expression, quantitative real-time SYBRGreen PCR (vs GAPDH); assay type: cell-based, human
Experimental: (§2) Quantitative real-time-PCR was performed using the Power SYBR Green PCR Master Mix (Applied Biosystems). Gene expression was analyzed using the 7500 Real-Time PCR Systems and Sequence Detection Software version 1.2.2 (Applied Biosystems). IL-2 and IL-4 gene expression levels were normalized using glyceraldehyde-3-phosphat dehydrogenase (GAPDH) expression levels as an endogenous reference.
(§3) The mean induction ratios were calculated.
(§4) Total cellular RNA was isolated and reverse-transcribed. Expression of IL-2 (see FIG. 4A) and IL-4 (see FIG. 4B) was analyzed using quantitative real-time SYBRGreen PCR. IL-2 and IL-4 expression levels were estimated by gene expression ratio between IL-2 or IL-4 gene and GAPDH genes.
Total cellular RNA was isolated and reverse-transcribed. Expression of IL-2 (see FIG. 5A) and IL-4 (see FIG. 5B) was analyzed using quantitative real-time SYBRGreen PCR. IL-2 and IL-4 expression levels were estimated by gene expression ratio between IL-2 or IL-4 gene and GAPDH genes. […]
(§5) Next, the cells were activated via plate-bound anti-CD3 antibody for 1 h and the gene expression levels for IL-4 (sec FIGS. 6A and 13), IL-2 (see FIGS. 6C and D) and CD95L (see FIGS. 6E and F) were assayed. […] A clear inhibition of TCR induced up-regulation of IL-4, IL-2 and CD95L was detected.

IL-4 [5] = assay: IL-4 gene expression, quantitative real-time SYBRGreen PCR (vs GAPDH); assay type: cell-based, human
Experimental: as §2, §3, §4
Total cellular RNA was isolated and reverse-transcribed. Expression of IL-2 (see FIG. 5A) and IL-4 (see FIG. 5B) was analyzed using quantitative real-time SYBRGreen PCR. IL-2 and IL-4 expression levels were estimated by gene expression ratio between IL-2 or IL-4 gene and GAPDH genes. Data are shown as fold increase of induction of gene expression, where anti-CD3 activated cells are compared with respective unstimulated controls.
as §5

CD95L = CD95L gene expression, quantitative real-time SYBRGreen PCR (vs GAPDH); assay type: cell-based, human; conditions: T-cells from patients with atopic dermatitis, 50 μg/ml for 7 days, anti-CD3 for 1 h
Experimental: as §2, §5

IL-4 [6] = assay: Activation-induced IL-4 secretion, ELISA; assay type: cell-based, human; conditions: 50 μg/ml for 7 days, anti-CD3 (30 μg/ml) and anti-CD28 (1 μg/ml) for 16 h
Experimental: IL-2 and IL-4 concentrations were measured by enzyme-linked immunosorbent (ELISA) assay (BD OptEIA Set Human IL-2/IL-4, Becton Dickinson). Resting peripheral human T-cells (“day 0” T-cells)+/−rotenone (10 μg/ml, 15 min pre-treatment) were stimulated with plate-bound anti-CD3 monoclonal antibody (30 μg/ml) and soluble anti-CD28 monoclonal antibody (1 μg/ml) for 4 h. Next, the supernatants were cleared by centrifugation and the measurements were performed according to the manufacturer's instructions.
Human peripheral blood T-cells from healthy donors or patients with atopic dermatitis were pre-activated by PHA treatment and subsequently cultured for 7 days in presence or absence of 50 μg/ml cipro. Next, T-cells were activated via plate-bound anti-CD3 antibody (30 μg/ml) and soluble anti-CD28 antibody (1 μg/ml) for 16 h. Supernatants were harvested and secreted amounts of IL-4 were measured by ELISA. […] Therefore, inhibition of IL-4 transcription is not compensated by translational or post translational mechanisms.

[7] = test system: PHA-activated human T-cells; conditions: short-term (up to 96 hours) or simultaneous treatment; cited from earlier work
IL-2 [8] = conditions: short-term (up to 96 hours) or simultaneous treatment, PHA-activated human T-cells; cited from earlier work
[9] = PHA-pre-activated primary human T-cells, different amounts of ciprofloxacin for 7 days, not restimulated
[10] = T-cells from patients with atopic dermatitis, 50 μg/ml for 7 days, anti-CD3 for 1 h

Compound: O=C(O)c1cn(C2CC2)c2cc(N3CCNCC3)c(F)cc2c1=O [ciprofloxacin, 1-cyclopropyl-6-fluoro-1,4-dihydro-4-oxo-7-(1-piperazinyl)-3-quinoline-carboxylic acid]
- activity of mitochondrial respiratory complex I [1]: impaired activity
- activity of complex II (succinate dehydrogenase) [2]: unaffected
- activity of citrate synthase (citrate synthase): unaffected
- activation-induced ROS generation [3]: blocks
- basal IL-2 expression (IL-2 [4]; [9]): increases basal IL-2 and IL-4 expression slightly
- anti-CD3-induced increase in IL-2 transcripts levels (IL-2 [4]; [10]): clearly blocked
- basal IL-4 levels, treated PHA-pre-activated T cells vs "day 0" T cells (IL-4 [5]; 5 healthy donors, 50 μg/ml for 7 days, P<0.05 (0.03125)): significant down-regulation
- basal IL-4 levels, treated PHA-pre-activated T cells vs "day 0" T cells (IL-4 [5]; 7 patients with atopic dermatitis, 50 μg/ml for 7 days, P<0.01 (0.00781)): significant down-regulation
- basal IL-4 expression (IL-4 [5]; [9]): increases basal IL-2 and IL-4 expression slightly
- anti-CD3-induced increase in IL-4 transcripts levels (IL-4 [5]; [10]): clearly blocked
- anti-CD3-induced increase in CD95L transcripts levels (CD95L): clearly blocked
- CD3/CD28 triggering-induced IL-4 secretion (IL-4 [6]; T-cells from healthy donors): blocked
- CD3/CD28 triggering-induced IL-4 secretion (IL-4 [6]; T-cells from patients with atopic dermatitis): blocked
- proliferation of PHA-activated human T-cells [7]: enhanced
- IL-2 secretion (IL-2 [8]): enhanced
